From patent US20260158149A1, “GLYCOSYLATED PRODRUGS” (UNIVERSITEIT LEIDEN, priority 2021, published 2026)
Entries after “also recorded” stand apart in the source; their conditions may differ. Read-outs that look alike come from different tables or passages of the source.

Tests used:
[1] = tested on: neutrophils migrated to the wounded area; test: Tail fin amputation assay: neutrophil migration to the wounded area; format: in vivo, Zebrafish (Danio rerio); settings: for reduction in neutrophil migration in the presence of MZ31: GBA2 inhibitor MZ31; for inhibition of neutrophil migration in Gr deficient larvae: gr mutant line (gr-/-); for migration of neutrophils towards the wounded area: wild type larvae, 4 h after tail wounding
Procedure: Zebrafish (Danio rerio) were maintained and handled according to the guidelines from the Zebrafish Model Organism Database (https://zfin.org/) and in compliance with the directives of the local animal welfare committee of Leiden University. To maintain circadian rhythmicity, adult fish were exposed to a 14 h light and 10 h dark cycle. Fertilization was performed by natural spawning at the beginning of the light period. Fertilized eggs were collected and raised at 28° C. in egg water (60 μg/ml Instant Ocean sea salts and 0.0025% methylene blue). The following zebrafish lines were used in this study: AB/TL wild type, the transgenic lines Tg(mpx:GFP^i114/mpeg1:mCherry^umsF001) (Bernut et al., (2014). Mycobacterium abscessus cording prevents phagocytosis and promotes abscess formation. Proc Natl Acad Sci USA 111, E943-952; Renshaw et al., (2006). A transgenic zebrafish model of neutrophilic inflammation. Blood 108, 3976-3978), and Tg(9xGCRE-HSV.UI123:EGFP)^ia20 (Benato et al., (2014). A living biosensor model to dynamically trace glucocorticoid transcriptional activity during development and adult life in zebrafish. Mol Cell Endocrinol 392, 60-72), and the mutant lines gba2^−/− (Lelieveld et al., (2019). Role of beta-glucosidase 2 in aberrant glycosphingolipid metabolism: model of glucocerebrosidase deficiency in zebrafish. J Lipid Res 60, 1851-1867) and gr^s357 (Ziv et al., (2013). An affective disorder in zebrafish with mutation of the glucocorticoid receptor. Mol Psychiatry 18, 681-691).
(§1) For the tail fin amputation experiments, 3 days post fertilization (dpf) larvae from the Tg(mpx:GFP^i114/mpeg1:mCherry^umsF001) line were anesthetized in 0.02% buffered aminobenzoic acid ethyl ester (tricaine) in egg water and placed on a 2% agarose-coated petri dish. The tails were partially amputated with a 1 mm sapphire blade (World Precision Instruments) under a Leica M165C stereomicroscope (Leica Microsystems, Wetzlar, Germany). Chemical treatment (or 0.1% DMSO as vehicle treatment) was started at 2 h before the amputation (pretreatment) and was continued for 4 h after the tail fin amputation (20 larvae per group, unless indicated otherwise), at which time point the larvae were fixed in 4% paraformaldehyde (PFA) overnight at 4° C. and stored at 4° C. until further examination. In some experiments, a 24 h treatment with miglustat, ME656 or MZ31 was started at 2 dpf, and these treatments were continued during the pretreatment and treatment with the other chemicals. For imaging of larvae from the Tg(mpx:GFP^i114/mpeg1:mCherry^umsF001) line, a LeicaMZ16FA fluorescence stereomicroscope with LAS 3.7 software was used. Neutrophils were detected by GFP fluorescence and macrophages by mCherry fluorescence. The neutrophil numbers were determined by blinded manual counting in a pre-determined area. When larvae from gba2^−/− or gr^s357mutant lines were used, neutrophil labeling was performed with the TSA fluorescein detection kit (PerkinElmer) for specific staining of Myeloperoxidase (Mpx)-positive cells, following the manufacturer's instructions.

[2] = tested on: il1b, il6, mmp9, mmp13, il8 mRNA; test: qPCR of pro-inflammatory genes after tail wounding; format: in vivo, Zebrafish (Danio rerio)
Description: as §1
(§2) For experiments in zebrafish, gene expression was measured using 3 dpf embryos. Groups of 15 larvae were collected in TRIzol reagent (Invitrogen) and mRNA was isolated using the miRNeasy mini kit (Qiagen), according to the manufacturer's instructions. For experiments in HeLa cells, samples were collected from a single well from 6 well plates (80% confluent) in TRIzol reagent and mRNA was isolated using the RNeasy mini kit. Zebrafish and cells samples were treated with DNAse utilizing the DNA-Free™ kit (Ambion). The cDNA synthesis was performed using iScript cDNA synthesis kit (Bio-Rad) using 1 μg of RNA per sample. For qPCR, 10 μM of forward and 10 μM of reverse primer, 12.5 μL of iQ SYBR Green Supermix (Bio-Rad), and 2 μL of cDNA were added to the qPCR reaction mixture. […] The qPCR reactions were performed on a MyiQ-single-color real-time PCR detection system (Bio-Rad) with initial denaturation for 3 min at 95° C. and 40 cycles of 15 s at 95.5° C., 15 s at 60° C., and 30 s at 72° C. Cycle threshold values (Ct values, i.e. the cycle numbers at which a threshold value of the fluorescence intensity was reached) were determined for each sample. The gene expression level for each sample was normalized using the expression of ppial (peptidylprolyl isomerase Ab (cyclophilin A)) for zebrafish samples, and 18S rRNA for human cells. The fold change per sample (compared to the respective control group) was calculated using the ΔΔCt method.

[3] = Larval body length; format: in vivo, Zebrafish (Danio rerio); settings: 5 dpf, treatment from 2 hpf
Procedure: (§3) When the regeneration of the tail fins after wounding or the larval body length was used as a readout, chemical treatments of the embryos were started at 2 hours post fertilization (hpf) and continued until 5 dpf. During this period, solutions were refreshed daily. At 5 dpf, larvae were imaged using a LeicaMZ16FA fluorescence stereomicroscope supported by LAS 3.7 software, and the length of the larvae was measured using ImageJ software (15 larvae per treatment group). For the regeneration experiments, tail fins were amputated at 2 dpf and larvae were imaged at 5 dpf (15 larvae per treatment group). The newly grown tissue can be distinguished from the old tissue, enabling precise measurement of the size of the newly grown tissue using ImageJ software.

[4] = tested on: regenerated tail fin; test: Regeneration of the tail fin after wounding; format: in vivo, Zebrafish (Danio rerio); settings: 5 dpf larvae, wounded at 2 dpf
Procedure: as §3

[5] = tested on: Gr; test: Transactivation activity of Gr in Tg(9xGCRE-HSV.UI23:EGFP) reporter line; format: in vivo, Zebrafish (Danio rerio); settings: 24 h treatment, 3 dpf larvae
Procedure: The Tg(9xGCRE-HSV.UI23:EGFP)^ia20 zebrafish reporter line expresses enhanced green fluorescent protein (EGFP) under the control of a promoter containing an array of nine GREs. To study the effect of chemical treatments on the transactivation activity of the Gr, 15 zebrafish embryos per group (2 dpf) were treated with the indicated compounds for 24 hours. The transactivation activity of Gr induced by the treatments was assessed using a LeicaMZ16FA fluorescence stereomicroscope supported by LAS 3.7 software. The integrated intensity of the EGFP signal in the larvae was determined using ImageJ software.

[6] = tested on: Gr target genes fkbp5, pck1 and nfkbiaa; test: qPCR of Gr target genes fkbp5, pck1, nfkbiaa; format: in vivo, Zebrafish (Danio rerio)
Procedure: as §2

[7] = Whole-body glucose measurement in larvae; settings: 5 dpf larvae treated from 2 hpf, non-wounded
Procedure: (§4) Zebrafish embryos at 2 hpf received a chemical treatment, as indicated, with daily refreshment of the solutions, until 5 dpf. At 5 dpf, the larvae were collected in an Eppendorf tube and 100 μL of ice-cold glucose buffer was added to each sample. The larvae were homogenized using a BulletBlender® for 3 min at 8,000 rpm. The homogenates were then centrifuged at 4° C. for 8 min at 11000 rpm and the supernatant was stored at −20° C. Whole-body glucose concentrations were determined using a Glucose Colorimetric Assay kit (Cayman Chemical, USA), according to the manufacturer's instructions. In each experiment, three biological replicates were used for each treatment group, and the colorimetric assay was performed using technical duplicates.

[8] = Whole-body cortisol measurement using ELISA; settings: 5 dpf larvae treated from 2 hpf, non-wounded
Procedure: (§5) Zebrafish embryos at 2 hpf received a chemical treatment, as indicated, with daily refreshment of the solutions, until 96 hpf. Then, the treatments were stopped and embryos were incubated in egg water until 5 dpf to avoid cross-reactivity with the compounds of the cortisol antibody used in the ELISA. Then, the treatments were stopped and replaced with egg water. At 5 dpf, the larvae were collected in an Eppendorf tube and 100 μL of ice-cold phosphate-buffered saline (PBS) was added. The larvae were homogenized using a BulletBlender® for 3 min at 8,000 rpm. Ethyl acetate was added to the homogenate and the supernatant was gathered and vaporized. A volume of 150 μl of 0.2% Bovine serum albumin (Sigma Aldrich) dissolved in phosphate-buffered saline (PBS) was added to the samples and frozen. Whole-body cortisol of the zebrafish larvae was determined by ELISA (Demeditec Diagnostics GmbH, Kiel-Wellsee, Germany), following the manufacturer's instructions. In each experiment, three biological replicates were used for each treatment group, and the colorimetric assay was performed using technical duplicates.

[9] = zebrafish, in vivo
Procedure: as §4

[10] = zebrafish, in vivo; remark: listed apart in the source
Procedure: as §5

[11] = target: T1, human GR (Homo sapiens, UniProt P04150); test: PolarScreen Glucocorticoid Receptor Competitor Assay; settings: glucosylation or gentiobiosylation of Pdn
T1 sequence (P04150 1-777): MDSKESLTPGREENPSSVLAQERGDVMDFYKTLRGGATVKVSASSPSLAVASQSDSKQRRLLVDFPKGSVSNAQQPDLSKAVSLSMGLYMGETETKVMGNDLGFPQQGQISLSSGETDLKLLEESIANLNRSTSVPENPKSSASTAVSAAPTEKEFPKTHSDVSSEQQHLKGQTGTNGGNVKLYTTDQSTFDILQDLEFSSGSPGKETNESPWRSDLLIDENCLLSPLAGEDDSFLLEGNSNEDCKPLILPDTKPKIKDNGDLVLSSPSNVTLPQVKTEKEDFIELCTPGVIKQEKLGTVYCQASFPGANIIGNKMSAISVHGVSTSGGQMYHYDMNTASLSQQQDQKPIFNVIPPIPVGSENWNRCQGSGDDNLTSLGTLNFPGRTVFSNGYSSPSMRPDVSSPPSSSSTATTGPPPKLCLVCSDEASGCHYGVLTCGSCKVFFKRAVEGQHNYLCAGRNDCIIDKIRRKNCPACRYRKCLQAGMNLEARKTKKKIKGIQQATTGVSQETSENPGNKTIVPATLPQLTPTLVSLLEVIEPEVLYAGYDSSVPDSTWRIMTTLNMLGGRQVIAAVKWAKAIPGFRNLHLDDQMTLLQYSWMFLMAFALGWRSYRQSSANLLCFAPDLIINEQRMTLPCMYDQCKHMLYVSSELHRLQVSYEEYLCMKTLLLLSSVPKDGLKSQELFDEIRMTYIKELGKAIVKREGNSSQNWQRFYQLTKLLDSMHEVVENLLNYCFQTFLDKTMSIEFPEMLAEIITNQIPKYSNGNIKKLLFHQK

[12] = tested on: macrophages migrated to the wounded area; test: Tail fin amputation assay: macrophage migration; format: in vivo, Zebrafish (Danio rerio); settings: wild type larvae, 4 h after wounding
Procedure: Zebrafish (Danio rerio) were maintained and handled according to the guidelines from the Zebrafish Model Organism Database (https://zfin.org/) and in compliance with the directives of the local animal welfare committee of Leiden University. To maintain circadian rhythmicity, adult fish were exposed to a 14 h light and 10 h dark cycle. Fertilization was performed by natural spawning at the beginning of the light period. Fertilized eggs were collected and raised at 28° C. in egg water (60 μg/ml Instant Ocean sea salts and 0.0025% methylene blue). […]
For the tail fin amputation experiments, 3 days post fertilization (dpf) larvae from the Tg(mpx:GFP^i114/mpeg1:mCherry^umsF001) line were anesthetized in 0.02% buffered aminobenzoic acid ethyl ester (tricaine) in egg water and placed on a 2% agarose-coated petri dish. […] For imaging of larvae from the Tg(mpx:GFP^i114/mpeg1:mCherry^umsF001) line, a LeicaMZ16FA fluorescence stereomicroscope with LAS 3.7 software was used. Neutrophils were detected by GFP fluorescence and macrophages by mCherry fluorescence. The neutrophil numbers were determined by blinded manual counting in a pre-determined area. […]

Row | SMILES | reduction in neutrophil migration in the presence of MZ31 [1] | inhibition of neutrophil migration in Gr deficient larvae [1] | reduction in neutrophil migration in the presence of miglustat ([1]; non-specific GBA inhibitor miglustat) | wounding-induced increase in expression of il1b, il6 and mmp9 [2] | larval length [3] | tissue regeneration (length of regenerated tail fin) [4] | transactivation activity of Gr (GFP signal in GRE:GFP reporter fish line) [5] | expression of Gr target genes fkbp5, pck1 and nfkbiaa [6] | whole body glucose level [7] | whole body cortisol level [8] | migration of neutrophils towards the wounded area [1] | expression of the pro-inflammatory genes il1b, il6 and il8 [2] | whole body glucose level [9] | whole body glucose level under wounding conditions with MZ31 [9] | whole body cortisol level [10] | whole body cortisol level under wounding conditions with MZ31 [10] | decrease in the binding affinity relative to Pdn [11] | migration of macrophages [12] | wounding-induced increase in expression of il1b, il6, mmp9 and mmp13 [2]
1 | CC(C)=CCCC(C)(O)[C@H]1CC[C@]2(C)[C@@H]1[C@H](O)C[C@@H]1[C@@]3(C)CC[C@H](O)C(C)(C)[C@@H]3CC[C@]12C (stereo in doubt) [PPD, Protopanaxadiol] | did not affect the action of PPD | the inhibition of neutrophil migration was abolished | did not affect the action of PPD | strongly suppressed | did decrease | did decrease | did not cause an increase in the fluorescence intensity | did not increase the expression | did not affect the glucose level | did decrease the cortisol concentration | – | – | – | – | – | – | – | – | –
2 | C[C@]12C=CC(=O)C=C1CC[C@@H]1[C@@H]2[C@@H](O)C[C@@]2(C)[C@H]1CC[C@]2(O)C(=O)CO[C@@H]1O[C@H](CO)[C@@H](O)[C@H](O)[C@H]1O [GPdn, 21-O-Glucose-Prednisolone] | independent of GBA2 activity | – | – | – | – | – | neither GPdn nor GbPdn induced the transactivation activity of the Gr | lack of effect | – | – | inhibited the neutrophil migration | these effects were similar to those observed upon Pdn and GPdn treatment | did not increase the glucose level | reduced upon treatment with MZ31 | only slightly reduced the cortisol concentrations | reduced upon treatment with MZ31 | ~30 fold | – | –
3 | C[C@@H]1C[C@H]2[C@@H]3CCC4=CC(=O)C=C[C@]4(C)[C@@]3(F)[C@@H](O)C[C@]2(C)[C@@]1(O)C(=O)CO[C@@H]1O[C@H](C(=O)O)[C@@H](O)[C@H](O)[C@H]1O [GDex, dexamethasone-glucuronide] | independent of GBA2 activity | absent | – | – | – | – | did not induce the transactivation activity of the Gr | did not induce the transactivation activity of the Gr | did not increase the glucose level | very minor decrease in cortisol level; also recorded: only slightly reduced the cortisol concentrations | inhibits neutrophil migration; also recorded: inhibited the neutrophil migration | – | – | – | – | – | – | without any effect on macrophage migration | strongly reduced
4 | C[C@H]1C[C@H]2[C@@H]3CCC4=CC(=O)C=C[C@]4(C)[C@@]3(Cl)[C@@H](O)C[C@]2(C)[C@@]1(O)C(=O)CO [Bec, beclomethasone] | – | absent | – | strongly suppressed | – | decrease | large increase in GFP signal | – | increased the glucose concentration | decrease in cortisol level; also recorded: decreased the cortisol level; also recorded: significantly larger decrease | decreases the migration of neutrophils; also recorded: inhibits neutrophil migration; also recorded: inhibited the neutrophil migration | – | – | – | – | – | – | leaves the migration of macrophages unaffected | –
